Non-standard residues stand in square brackets, D forms with d. No end group written: not given here. Cit = NC(=O)NCCC[C@H](N)C(=O)O; R(Me)2 = dimethyl-arginine; Abu = CC[C@H](N)C(=O)O; Aib = CC(C)(N)C(=O)O
Experiments:
[1] = system: SKOV3 (human ovarian carcinoma) cells, very low αvβ6 cell surface expression; assay: αvβ6 ligand binding, flow cytometry of Cy5-labeled ligand-polymer conjugates, SKOV3 negative-control cells; type: cell-based; conditions: Cy5-polymer conjugate 5 μg/ml, 37° C., 3 h; specific MFI ratio = sample MFI/no-ligand MFI
Experimental: (§1) Each αvβ6 ligand was attached to a reversibly modified 1170-100B polymer cargo molecule. The 1170-100B polymer cargo molecule (a 56:44 ethoxyethylamine acrylate:propyl acrylate copolymer having a MW of about 45000) was labeled with Cy5 (NHS linker) and combined with aldehyde-PEG24-ACit at a weight ratio of 2:1 (polymer:aldehyde-PEG24-ACit) in 50 mM HEPES pH 9.0 buffer for 1 h at RT to form (aldehyde-PEG24-ACit)n-1170-100B wherein n is an integer greater than 0. Typically, n was about 10.
(§2) The aldehyde-PEG24-ACit-modified polymer was then reacted with PEG12-ACit at a weight ratio of 1:8 (polymer:PEG12-ACit) in 50 mM HEPES, pH 9.0 buffer for 1 h at RT to form (aldehyde-PEG24-ACit)n-1170-100B-(CitA-PEG12)m, wherein m is an integer greater than 0.
(§3) The modified polymer was then purified using a sephadex G-50 spin column and concentration determined:
(§4) Each αvβ6 ligand was modified with HyNic to facilitate conjugation to the cargo molecule. Purified polymer was combined with αvβ6 ligand-(PEG)8-K-HyNic at a weight ratio of 1:1.9 (polymer: αvβ6 ligand) in 50 mM NaOAC-HOAc, pH 5.0 buffer at RT overnight to form the αvβ6 ligand-polymer conjugate. The αvβ6 ligand-polymer conjugate was purified using a sephadex G-50 spin column.
Conjugation efficiency was quantified by measuring Absorbance of the αvβ6-polymer conjugate at 354 nm using an extinction coefficient of […] M^−1 cm^−1 for bis-aryl hydrazone bond. […]
To assess for specificity of binding of the αvβ6 ligands to the αvβ6 integrin, each αvβ6 ligand or negative control peptide was conjugated to a Cy5-labeled polymer (as described above) and evaluated for binding to cells. […] Samples were analyzed on a BD Biosciences Canto II cytometer equipped with a violet (405 nm), blue (488 nm) and red (633 nm) lasers. […] These viable cells were then assessed for conjugate binding/uptake with the red laser as the Mean Fluorescence Intensity (MFI) of the Cy5 fluorophore. […] A specific MFI Ratio (sMFIr) for each αvβ6 ligand was determined by the formula: specific sample MFI value/no-ligand MFI value.

[2] = system: H2009 (human lung epithelial adenocarcinoma) cells, αvβ6 integrin expressing; assay: αvβ6 ligand binding, flow cytometry of Cy5-labeled ligand-polymer conjugates, H2009 αvβ6 positive cells; type: cell-based; conditions: Cy5-polymer conjugate 5 μg/ml, 37° C., 3 h, specific MFI ratio = sample MFI/no-ligand MFI
Experimental: as §1, §2, §3, §4
Conjugation efficiency was quantified by measuring Absorbance of the αvβ6-polymer conjugate at 354 nm using an extinction coefficient of […] M^−1 cm^−1 for bis-aryl hydrazone bond.
αvβ6-polymer conjugates were diluted with isotonic glucose solution to desired concentrations for further analysis.
To assess for specificity of binding of the αvβ6 ligands to the αvβ6 integrin, each αvβ6 ligand or negative control peptide was conjugated to a Cy5-labeled polymer (as described above) and evaluated for binding to cells. […] H2009 (human lung epithelial adenocarcinoma) and CAPAN-2 (human pancreas adenocarcinoma) cells served as the αvβ6 positive-control cell lines. Cells were detached from culturing flasks with Accutase, washed in PBS, and seeded into 5 ml polystyrene round-bottom tubes at 200,000 cells in 200 μl complete media (culturing media with supplements and fetal calf serum). αvβ6 ligand-polymer conjugates or no-ligand-polymer conjugates were added at 5 μg/ml (polymer-Cy5 concentration) to cells, mixed and incubated at 37° C. for 3 h. Incubation at 37° C. facilitated ligand/receptor interaction which may result in static binding to the extracellular cell surface and/or internalized ligand/receptor complexes. The mixture was re-suspended at 1 h intervals. Following a 3 h incubation, cells were washed 2× with 4 ml chilled buffer (PBS-2% FCS) and re-suspended in 200 μl buffer containing 10 μM SYTOX blue stain for live/dead cell gating. Samples were analyzed on a BD Biosciences Canto II cytometer equipped with a violet (405 nm), blue (488 nm) and red (633 nm) lasers. Viable cells were initially gated as the SYTOX blue negative population on the C detector with the violet laser. These viable cells were then assessed for conjugate binding/uptake with the red laser as the Mean Fluorescence Intensity (MFI) of the Cy5 fluorophore. Data analyses were performed with FlowJo v10.1 software. A specific MFI Ratio (sMFIr) for each αvβ6 ligand was determined by the formula: specific sample MFI value/no-ligand MFI value.

Row | Substance | MFI SKOV3 [1] | MFI H2009 [2] | MFI H2009 ([2]; listed as AcR(Me)2GDLATLRQL)
1 | Ac-R(Me)2GDLATLRQL (Ac-[R(Me)2]GDLATLRQL) [negative control peptide] | 0.9 | 1 | did not show significant binding
2 | CH3(CH2)2-RGDLAAbuLCitAib ({CH3(CH2)2}-RGDLA[Abu]L[Cit][Aib]) | – | 3.9 | –
3 | CH3(CH2)3-RGDLAAbuLCitAib ({CH3(CH2)3}-RGDLA[Abu]L[Cit][Aib]) | – | 4.7 | –
4 | CH3(CH2)4-RGDLAAbuLCitAib ({CH3(CH2)4}-RGDLA[Abu]L[Cit][Aib]) | – | 4.1 | –
5 | CH3CH2-RGDLAAbuLCitAib (CH3CH2-RGDLA[Abu]L[Cit][Aib]) | – | 4.4 | –
6 | Dap(guanidino)-GDLATLRQL ({Dap(guanidino)}-GDLATLRQL) | 1.4 | 3.4 | –
7 | des-amino-RGDLATLRQL ({des‑amino}-RGDLATLRQL; not fully specified (residue 1); printed as des-amino-RGDLATLRQL) | 0.8 | 1.1 | –
8 | meta-guanidino-benzoic-GDLATLRQL ({meta‑guanidino‑benzoic}-GDLATLRQL) | – | 4.5 | –
